For six compounds, IC50 results are on record in BindingDB's records for doi:10.1016/s0960-894x(98)00721-5 (Tumor Biology Center, 1999).

One may read the IC50 as the concentration that inhibits the measured activity by half. A lower IC50 goes with inhibition by little substance.

For the test, the target named is Phospholipase A2 (Naja mossambica mossambica). Briefly: Phospholipase A2 inhibition using mixed micelles pH-stat assay and 14 kDa-Phospholipase A2 from Naja mossambica mossambica.
With `COP(=O)(O)OC[C@@H](CCCCCCCOC(=O)CCC(=O)OC1CCC2(C)C(=CCC3C2CCC2(C)C(C(C)CCCC(C)C)CCC32)C1)NC(C)=O` (stereo partly drawn) [Succinic acid (R)-8-acetylamino-9-(hydroxy-methoxy-phosphoryloxy)-nonyl ester 17-(1,5-dimethyl-hexyl)-10,13-dimethyl-2,3,4,7,8,9,10,11,12,13,14,15,16,17-tetradecahydro-1H-cyclopenta[a]phenanthren-3-yl ester], 2.3 µM corresponded to half-maximal inhibition (IC50).
The figure for `CCCCCCCCCCCCCCCC[C@H](COP(=O)(O)OC)NC(C)=O` [Phosphoric acid (R)-2-acetylamino-octadecyl ester methyl ester] is 3.4 µM; for `CCCCCCCCCCCCCCCCOCCOCCCCCCC[C@H](COP(=O)(O)OC)NC(C)=O` [Phosphoric acid (R)-2-acetylamino-9-(2-hexadecyloxy-ethoxy)-nonyl ester methyl ester] it is 1.7 µM.
Consider `CCCCCCCCCCCCCCCC(=O)OCCCCCCC[C@H](COP(=O)(O)OC)NC(C)=O` [Hexadecanoic acid (R)-8-acetylamino-9-(hydroxy-methoxy-phosphoryloxy)-nonyl ester], for which 5 µM corresponded to half-maximal inhibition (IC50).
On to `CCCCCCCC(=O)OCCCCCCC[C@H](COP(=O)(O)OC)NC(C)=O` [Octanoic acid (R)-8-acetylamino-9-(hydroxy-methoxy-phosphoryloxy)-nonyl ester], for which the IC50 amounted to 3.1 µM.
`COP(=O)(O)OC[C@@H](CCCCCCCO)NC(C)=O` [Phosphoric acid (R)-2-acetylamino-9-hydroxy-nonyl ester methyl ester] showed an IC50 of 350 µM.
